Results published in publication doi:10.1101/2021.04.14.439284v2 (biorxiv, 2021).

Assays:
[1] = target: T1, bovine serum albumin (BSA) (Bos taurus, UniProt P02769); experiment: uSTA saturation transfer NMR, Bloch-McConnell fit; format: binding
T1 construct: gene ALB; commercial native protein (Sigma Aldrich), non-modified

[2] = target: T2, E. coli trehalose repressor TreR (Escherichia coli, UniProt P36673); experiment: uSTA saturation transfer NMR; format: binding; conditions: weak ligand
T2 sequence (P36673 1-315): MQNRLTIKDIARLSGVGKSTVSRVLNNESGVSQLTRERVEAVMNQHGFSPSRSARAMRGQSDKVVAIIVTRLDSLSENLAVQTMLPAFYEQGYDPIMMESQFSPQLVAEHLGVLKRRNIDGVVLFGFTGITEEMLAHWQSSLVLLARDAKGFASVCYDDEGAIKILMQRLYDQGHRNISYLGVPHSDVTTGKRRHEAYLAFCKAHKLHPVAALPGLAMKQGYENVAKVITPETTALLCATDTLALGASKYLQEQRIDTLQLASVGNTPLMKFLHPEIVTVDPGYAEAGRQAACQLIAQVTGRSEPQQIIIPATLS

T1 sequence (P02769 25-607): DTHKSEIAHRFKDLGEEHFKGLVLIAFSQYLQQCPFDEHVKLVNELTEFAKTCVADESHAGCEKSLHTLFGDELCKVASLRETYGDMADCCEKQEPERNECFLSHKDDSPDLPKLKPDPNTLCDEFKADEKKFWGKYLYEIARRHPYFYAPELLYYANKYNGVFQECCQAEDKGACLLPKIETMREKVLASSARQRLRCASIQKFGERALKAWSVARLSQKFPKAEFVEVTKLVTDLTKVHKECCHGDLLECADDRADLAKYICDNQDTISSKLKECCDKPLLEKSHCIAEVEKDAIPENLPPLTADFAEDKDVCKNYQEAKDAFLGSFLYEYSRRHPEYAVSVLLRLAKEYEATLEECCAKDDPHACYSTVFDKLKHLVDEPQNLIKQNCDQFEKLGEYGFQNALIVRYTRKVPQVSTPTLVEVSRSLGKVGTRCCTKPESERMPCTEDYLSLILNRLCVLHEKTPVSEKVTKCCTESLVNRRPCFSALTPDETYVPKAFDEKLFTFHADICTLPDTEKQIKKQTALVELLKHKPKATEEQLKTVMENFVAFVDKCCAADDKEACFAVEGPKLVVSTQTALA

Kd [1] [µM] | Structure (SMILES) | transfer efficiency [2]
38 ± 15 | N[C@@H](Cc1c[nH]c2ccccc12)C(=O)O [L-tryptophan] | 
 | OC[C@H]1O[C@H](O[C@H]2O[C@H](CO)[C@@H](O)[C@H](O)[C@H]2O)[C@H](O)[C@@H](O)[C@@H]1O [trehalose] | trehalose (Tre) binds only weakly to trehalose repressor protein TreR
